Test results: EP0349354A1, “Peptides PF10 to PF19 from a retro virus HIV, method for the synthesis of these peptides and their use, particularly in diagnostics” (INSTITUT PASTEUR, priority 1988, dated 1990)
Where no end group is shown, it is not given here. The star is where a group is joined. Acm = CC(=O)NC*

Columns and labels:
[1] = tested on: anticorps anti-protéine F; assay: Western blot test on peptide spots with sera of HIV-1 infected patients; assay type: binding, humain; set-up: key to réaction avec sérum CHA 1/300, 10µl / réaction avec sérum LOM 1/100, 10µl / réaction avec sérum LOM 1/100, 5µl / réaction avec sérum CHA 1/300, 5µl / réaction avec sérum CHA 1/300, 2µl / réaction avec sérum CHA 1/300, 1µl / réaction avec sérum 1545 1/200, 10µl: ++ signifiant une réaction plus marquée
Description: Pour les besoins du test, les différents peptides PF16, PF19, PF13, PF17 utilisés sont dilués à une concentration de 2 mg/ml.
Sur une bande de papier BIORAD pour transblot, on dépose différents spots : 1µl, 2µl, 5µl, 10µl.
Après séchage on pratique un test Western Blot classique en utilisant comme anticorps des sérums de patients infectés par le virus HIV-1, positifs pour la protéine F, à des dilutions variant de 1/100 à 1/300.
Les peptides testés permettent d'aboutir aux résultats résumés dans le tableau 2 avec trois sérums différents anti-F ++ (++ signifiant une réaction plus marquée).

[2] = tested on: anticorps, monoclonal anti-protéine F d'un rétrovirus HIV-1; assay: ELISA with mouse monoclonal anti-protein F antibody; assay type: binding, souris; conditions: antibody produced in mouse
Source text: Par ailleurs, les inventeurs ont constaté qu'un anticorps, monoclonal anti-protéine F d'un rétrovirus HIV-1 produit chez la souris reconnait le peptide PF16 de l'invention dans un test ELISA.

anticorps anti-nef = assay: ELISA for detection of anti-nef antibodies on coated peptides or nef; assay type: binding, humain

GMDDPEREVLEWRFDSRLAFHHVARELHPEYFKNC(acm) (GMDDPEREVLEWRFDSRLAFHHVARELHPEYFKNC(Acm)) [PF16, protéine F HIV-1, séquence 171-205]
réaction avec sérum 1545 1/200, 10µl ([1]; serum 1545 diluted 1/200, spot 10µl of peptide at 2 mg/ml): ++ | réaction avec sérum CHA 1/300, 1µl ([1]; serum CHA diluted 1/300, spot 1µl of peptide at 2 mg/ml): ++ | réaction avec sérum CHA 1/300, 2µl ([1]; serum CHA diluted 1/300, spot 2µl of peptide at 2 mg/ml): ++ | réaction avec sérum CHA 1/300, 5µl ([1]; serum CHA diluted 1/300, spot 5µl of peptide at 2 mg/ml): ++ | réaction avec sérum CHA 1/300, 10µl ([1]; serum CHA diluted 1/300, spot 10µl of peptide at 2 mg/ml): ++ | réaction avec sérum LOM 1/100, 5µl ([1]; serum LOM diluted 1/100 (column outside the heading of positive sera), spot 5µl of peptide at 2 mg/ml): ++ | réaction avec sérum LOM 1/100, 10µl ([1]; serum LOM diluted 1/100 (column outside the heading of positive sera), spot 10µl of peptide at 2 mg/ml): ++ | reconnaissance par un anticorps monoclonal anti-protéine F [2]: reconnait | nombre de sérums anti-nef positifs ayant réagi (anticorps anti-nef; ELISA, out of 31 anti-nef positive sera): 26 | intensité de l'immunoréactivité (OD), Serum 1 (anticorps anti-nef; Serum 1, anti-nef positive, 500 ng coated per well): +++ (pour OD = 0,8 à 2,0) | intensité de l'immunoréactivité (OD), Serum 2 (anticorps anti-nef; Serum 2, anti-nef positive, 500 ng coated per well): +++ (pour OD = 0,8 à 2,0) | intensité de l'immunoréactivité (OD), Serum 3 (anticorps anti-nef; Serum 3, anti-nef positive, 500 ng coated per well): + (pour OD = 0,2 à 0,4) | intensité de l'immunoréactivité (OD), Serum 4 (anticorps anti-nef; Serum 4, anti-nef positive, 500 ng coated per well): +++ (pour OD = 0,8 à 2,0) | intensité de l'immunoréactivité (OD), Serum 5 (anticorps anti-nef; Serum 5, anti-nef positive, 500 ng coated per well): +++ (pour OD = 0,8 à 2,0) | intensité de l'immunoréactivité (OD), Serum 6 (anticorps anti-nef; Serum 6, anti-nef positive, 500 ng coated per well): +++ (pour OD = 0,8 à 2,0) | intensité de l'immunoréactivité (OD), Serum 7 (anticorps anti-nef; Serum 7, anti-nef positive, 500 ng coated per well): - (pour une densité optique (OD) inférieure à 0,2) | intensité de l'immunoréactivité (OD), Serum 8 (anticorps anti-nef; Serum 8, anti-nef positive, 500 ng coated per well): - (pour une densité optique (OD) inférieure à 0,2) | intensité de l'immunoréactivité (OD), Serum 9 (anticorps anti-nef; Serum 9, anti-nef positive, 500 ng coated per well): - (pour une densité optique (OD) inférieure à 0,2) | intensité de l'immunoréactivité (OD), Serum 10 (anticorps anti-nef; Serum 10, anti-nef positive, 500 ng coated per well): + (pour OD = 0,2 à 0,4) | intensité de l'immunoréactivité (OD), Serum 11 (anticorps anti-nef; Serum 11, anti-nef positive, 500 ng coated per well): + (pour OD = 0,2 à 0,4) | intensité de l'immunoréactivité (OD), Serum 12 (anticorps anti-nef; Serum 12, anti-nef positive, 500 ng coated per well): - (pour une densité optique (OD) inférieure à 0,2) | intensité de l'immunoréactivité (OD), Serum 13 (anticorps anti-nef; Serum 13, anti-nef positive, 500 ng coated per well): ++ (pour OD = 0,4 à 0,8) | intensité de l'immunoréactivité (OD), Serum 14 (anticorps anti-nef; Serum 14, anti-nef positive, 500 ng coated per well): - (pour une densité optique (OD) inférieure à 0,2) | intensité de l'immunoréactivité (OD), Serum 15 (anticorps anti-nef; Serum 15, anti-nef positive, 500 ng coated per well): +++ (pour OD = 0,8 à 2,0) | intensité de l'immunoréactivité (OD), Serum 16 (anticorps anti-nef; Serum 16, anti-nef positive, 500 ng coated per well): +++ (pour OD = 0,8 à 2,0) | intensité de l'immunoréactivité (OD), Serum 17 (anticorps anti-nef; Serum 17, anti-nef positive, 500 ng coated per well): ++ (pour OD = 0,4 à 0,8) | intensité de l'immunoréactivité (OD), Serum 18 (anticorps anti-nef; Serum 18, anti-nef positive, 500 ng coated per well): +++ (pour OD = 0,8 à 2,0) | intensité de l'immunoréactivité (OD), Serum 19 (anticorps anti-nef; Serum 19, anti-nef positive, 500 ng coated per well): +++ (pour OD = 0,8 à 2,0) | intensité de l'immunoréactivité (OD), Serum 20 (anticorps anti-nef; Serum 20, anti-nef positive, 500 ng coated per well): ++ (pour OD = 0,4 à 0,8) | intensité de l'immunoréactivité (OD), Serum 21 (anticorps anti-nef; Serum 21, anti-nef positive, 500 ng coated per well): +++ (pour OD = 0,8 à 2,0) | intensité de l'immunoréactivité (OD), Serum 22 (anticorps anti-nef; Serum 22, anti-nef positive, 500 ng coated per well): +++ (pour OD = 0,8 à 2,0) | intensité de l'immunoréactivité (OD), Serum 23 (anticorps anti-nef; Serum 23, anti-nef positive, 500 ng coated per well): ++ (pour OD = 0,4 à 0,8) | intensité de l'immunoréactivité (OD), Serum 24 (anticorps anti-nef; Serum 24, anti-nef positive, 500 ng coated per well): +++ (pour OD = 0,8 à 2,0) | intensité de l'immunoréactivité (OD), Serum 25 (anticorps anti-nef; Serum 25, anti-nef positive, 500 ng coated per well): +++ (pour OD = 0,8 à 2,0) | intensité de l'immunoréactivité (OD), Serum 26 (anticorps anti-nef; Serum 26, anti-nef positive, 500 ng coated per well): +++ (pour OD = 0,8 à 2,0) | intensité de l'immunoréactivité (OD), Serum 27 (anticorps anti-nef; Serum 27, anti-nef positive, 500 ng coated per well): + (pour OD = 0,2 à 0,4) | intensité de l'immunoréactivité (OD), Serum 28 (anticorps anti-nef; Serum 28, anti-nef positive, 500 ng coated per well): ++ (pour OD = 0,4 à 0,8) | intensité de l'immunoréactivité (OD), Serum 29 (anticorps anti-nef; Serum 29, anti-nef positive, 500 ng coated per well): ++ (pour OD = 0,4 à 0,8) | intensité de l'immunoréactivité (OD), Serum 30 (anticorps anti-nef; Serum 30, anti-nef positive, 500 ng coated per well): ++ (pour OD = 0,4 à 0,8) | intensité de l'immunoréactivité (OD), Serum 31 (anticorps anti-nef; Serum 31, anti-nef positive, 500 ng coated per well): +++ (pour OD = 0,8 à 2,0) | intensité de l'immunoréactivité (OD), Serum 32 (anticorps anti-nef; Serum 32, anti-nef negative control serum, 500 ng coated per well): - (pour une densité optique (OD) inférieure à 0,2) | intensité de l'immunoréactivité (OD), Serum 33 (anticorps anti-nef; Serum 33, anti-nef negative control serum, 500 ng coated per well): - (pour une densité optique (OD) inférieure à 0,2)
